The text below walks through data of patent US11000033B2, “Ketone or oxime compound, and herbicide” (NISSAN CHEMICAL CORPORATION, priority 2014, dated 2021).

Assay type in all cases: in vivo
Data set [1] relates to Amaranthus retroflexus. Description: Test Example 5: herbicidal effect by foliage application, plastic box (symbol N). To be noted: 320 g/ha, 3 weeks after application. The essentials:
(§1)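 Effect is rated 3 weeks after a foliar spray of water-diluted emulsion concentrate at a predetermined herbicide amount. Plants had grown 14 days in a 25° C. to 30° C. greenhouse from seed in sterilized diluvial soil.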

Data set [2] has as its system Digitaria ciliaris. The experiment in a line: Test Example 5: herbicidal effect by foliage application, plastic box (symbol F). The conditions noted are these: 320 g/ha, 3 weeks after application. An outline of the steps: as §1
The subject of a further data set is wheat. Description: Test Example 5: effect on crop by foliage application, plastic box (symbol e). The conditions noted are these: 320 g/ha, 3 weeks after application. The essentials:
(§2)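 Crop and weed seeds sown in spots in sterilized diluvial soil in plastic boxes and covered with about 1.5 cm soil. Plants raised in a greenhouse at 25° C. to 30° C. for foliar application.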

For another data set, the system named is beet. The experiment in a line: Test Example 5: effect on crop by foliage application, plastic box (symbol f). To be noted: 320 g/ha, 3 weeks after application. An outline of the steps: as §2
In another data set the test system is rice plant. Description: Test Example 5: effect on crop by foliage application, plastic box (symbol b). To be noted: 320 g/ha, 3 weeks after application. An outline of the steps: as §2
A further data set has as its system Apera spica-venti. The experiment in a line: Test Example 4: herbicidal effect by soil treatment (symbol L). To be noted: application herbicide amount 320 g/ha. An outline of the steps: (§3)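 Seeds were sown in sterilized diluvial soil, covered with about 1.5 cm of soil, and the soil surface was sprayed with a water-diluted emulsion of the compound at a predetermined rate. Plants grew in a greenhouse at 25° C. to 30° C.; effects were scored visually 3 weeks after application.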

The subject of another data set is Veronica persica. Description: Test Example 5: herbicidal effect by foliage application, plastic box (symbol R). The conditions noted are these: 320 g/ha, 3 weeks after application. An outline of the steps:
as §1

Data set [3] deals with Amaranthus retroflexus. The experiment in a line: Test Example 4: herbicidal effect by soil treatment (symbol N). To be noted: application herbicide amount 320 g/ha. An outline of the steps:
as §3

The subject of a further data set is Leptochloa chinensis. The experiment in a line: Test Example 3: herbicidal effect by foliage application, Wagner pot (symbol D). To be noted: application herbicide amount 320 g/ha. The essentials:
(§4)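 Plants sown in submerged alluvial soil (water depth 0.1–0.5 cm) in a 25–30 °C greenhouse and grown 14 days. An emulsion of the compound diluted in water to a set herbicide amount was sprayed uniformly on foliage. Effect on each plant scored 3 weeks after application.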

Data set [4] has as its system Echinochloa crus-galli var. crus-galli. Description: Test Example 3: herbicidal effect by foliage application, Wagner pot (symbol H). The conditions noted are these: application herbicide amount 320 g/ha. An outline of the steps:
as §4

In another data set the test system is Stellaria media. Description: Test Example 5: herbicidal effect by foliage application, plastic box (symbol P). The conditions noted are these: 320 g/ha, 3 weeks after application. The essentials:
as §1

Another data set relates to Scirpus juncoides. The experiment in a line: Test Example 2: herbicidal activity, application during weed generation in submerged conditions (symbol B). The conditions noted are these: Table 23; application herbicide amount 320 g/ha; grade 0-5 by criteria of Test Example 1. The essentials:
(§5)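 Seeds sown in flooded alluvial soil (4 cm water) were grown in a 25-30° C greenhouse. At the one- to two-leaf stage, diluted emulsion of compound was applied to the water surface at a predetermined rate. Effect was scored 3 weeks later.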

The subject of a further data set is Lolium multiflorum Lam. Description: Test Example 4: herbicidal effect by soil treatment (symbol K). To be noted: application herbicide amount 320 g/ha. The essentials: as §3
Data set [5] concerns Echinochloa crus-galli var. crus-galli. Description: Test Example 4: herbicidal effect by soil treatment (symbol H). The conditions noted are these: application herbicide amount 320 g/ha. The essentials:
as §3

For a further data set, the system named is Abutilon theophrasti. Description: Test Example 4: herbicidal effect by soil treatment (symbol M). The conditions noted are these: application herbicide amount 320 g/ha. The essentials:
as §3

Another data set has as its system Avena fatua. The experiment in a line: Test Example 5: herbicidal effect by foliage application, plastic box (symbol I). To be noted: 320 g/ha, 3 weeks after application. An outline of the steps:
as §1

Data set [6] concerns Digitaria ciliaris. The experiment in a line: Test Example 4: herbicidal effect by soil treatment (symbol F). The conditions noted are these: application herbicide amount 320 g/ha. The essentials: as §3
A further data set concerns rapeseed. The experiment in a line: Test Example 4: effect on crop by soil treatment (symbol g). To be noted: application herbicide amount 320 g/ha. The essentials:
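Greenhouse culture at 25° C. to 30° C. followed sowing of seed in spots on sterilized diluvial soil with a soil cover close to 1.5 cm thick.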

Data set [7] relates to Echinochloa oryzacola Vasing. Description: Test Example 2: herbicidal activity, application during weed generation in submerged conditions (symbol A). The conditions noted are these: Table 23; application herbicide amount 320 g/ha; grade 0-5 by criteria of Test Example 1. The essentials:
as §5

Another data set concerns Chenopodium album. Description: Test Example 5: herbicidal effect by foliage application, plastic box (symbol O). To be noted: 320 g/ha, 3 weeks after application. An outline of the steps:
as §1

For the compound `CCOC(=O)C(C(=O)c1ccccn1)C1CC(O)=C(c2c(C)cc(C)cc2C)C1=O` (stereo not drawn) [2-013], the “N: Amaranthus retroflexus, herbicidal effect grade” value (from here on “N: Amaranthus retroflexus”) with Amaranthus retroflexus [1] and in the data set with Amaranthus retroflexus [3] was 0 (Herbicidal ratio of 5% or lower (almost no effect)) throughout. Also, the “F: Digitaria ciliaris, herbicidal effect grade” value (“F: Digitaria ciliaris” below) is 4 (Herbicidal ratio of 70% or higher and lower than 90%) in the data set with Digitaria ciliaris [2]; 1 (Herbicidal ratio of 5% or higher and lower than 20%) in the data set on Digitaria ciliaris [6]. In addition, the “e: wheat, effect on crop grade” value in the data set on wheat is listed as 0 (Herbicidal ratio of 5% or lower (almost no effect)). The “f: beet, effect on crop grade” value in the data set on beet was 0 (Herbicidal ratio of 5% or lower (almost no effect)). The “b: directly sowed rice plant, effect on crop grade” value (shortened to “b: directly sowed rice plant”) in the data set with rice plant was 5 (Herbicidal ratio of 90% or more (almost completely withered)). For the same compound, the “L: Apera spica-venti, herbicidal effect grade” value (from here on “L: Apera spica-venti”) with Apera spica-venti is given as 0 (Herbicidal ratio of 5% or lower (almost no effect)). Besides, the “R: Veronica persica, herbicidal effect grade” value (shortened to “R: Veronica persica”) in the data set on Veronica persica is 2 (Herbicidal ratio of 20% or higher and lower than 40%). Also, the “herbicidal effect on D (Leptochloa chinensis), grade 0-5” value (shortened to “herbicidal effect on D”) with Leptochloa chinensis is listed as 0 (Herbicidal ratio of 5% or lower (almost no effect)). Also, the “herbicidal effect on H (Echinochloa crus-galli var. crus-galli), grade 0-5” value (“herbicidal effect on H” below) in data set [4] is recorded as 0 (Herbicidal ratio of 5% or lower (almost no effect)). Moreover, the “P: Stellaria media, herbicidal effect grade” value (from here on “P: Stellaria media”) in the data set on Stellaria media is 1 (Herbicidal ratio of 5% or higher and lower than 20%). For the same compound, in the data set on Scirpus juncoides, the “Herbicidal effect grade, B: Scirpus juncoides” value (“Herbicidal effect grade, B” for short) is given as 0 (Herbicidal ratio of 5% or lower (almost no effect)). Further, in the data set on Lolium multiflorum Lam., the “K: Lolium multiflorum Lam., herbicidal effect grade” value was 1 (Herbicidal ratio of 5% or higher and lower than 20%). The “H: Echinochloa crus-galli var. crus-galli, herbicidal effect grade” value in data set [5] was 1 (Herbicidal ratio of 5% or higher and lower than 20%). Moreover, the “M: Abutilon theophrasti, herbicidal effect grade” value (“M: Abutilon theophrasti” for short) in the data set on Abutilon theophrasti is given as 0 (Herbicidal ratio of 5% or lower (almost no effect)). The “I: Avena fatua, herbicidal effect grade” value in the data set with Avena fatua was 3 (Herbicidal ratio of 40% or higher and lower than 70%). In addition, the “g: rapeseed, effect on crop grade” value in the data set on rapeseed was 0 (Herbicidal ratio of 5% or lower (almost no effect)). For the same compound, the “Herbicidal effect grade, A: Echinochloa oryzacola Vasing.” value in data set [7] is recorded as 0 (Herbicidal ratio of 5% or lower (almost no effect)). For the same compound, the “O: Chenopodium album, herbicidal effect grade” value (from here on “O: Chenopodium album”) with Chenopodium album is 1 (Herbicidal ratio of 5% or higher and lower than 20%).
Consider `COC(=O)C(C(=O)C1CC1)C1CC(O)=C(c2c(C)cc(C)cc2C)C1=O` (stereo not drawn) [2-014], for which the “N: Amaranthus retroflexus” value with Amaranthus retroflexus [1] and in the data set on Amaranthus retroflexus [3] was 0 (Herbicidal ratio of 5% or lower (almost no effect)) throughout. In addition, the “F: Digitaria ciliaris” value in the data set on Digitaria ciliaris [2] was 3 (Herbicidal ratio of 40% or higher and lower than 70%); in the data set on Digitaria ciliaris [6] it was 5 (Herbicidal ratio of 90% or more (almost completely withered)). Further, in the data set with wheat, the “e: wheat, effect on crop grade” value is on record as 0 (Herbicidal ratio of 5% or lower (almost no effect)). The “f: beet, effect on crop grade” value in the data set with beet is 0 (Herbicidal ratio of 5% or lower (almost no effect)). In addition, the “b: directly sowed rice plant” value in the data set on rice plant was 5 (Herbicidal ratio of 90% or more (almost completely withered)). Moreover, in the data set with Apera spica-venti, the “L: Apera spica-venti” value is 2 (Herbicidal ratio of 20% or higher and lower than 40%). In addition, in the data set on Veronica persica, the “R: Veronica persica” value was 3 (Herbicidal ratio of 40% or higher and lower than 70%). Further, in the data set with Leptochloa chinensis, the “herbicidal effect on D” value was 4 (Herbicidal ratio of 70% or higher and lower than 90%). In addition, in [4], the “herbicidal effect on H” value was 5 (Herbicidal ratio of 90% or more (almost completely withered)). Further, in the data set with Stellaria media, the “P: Stellaria media” value is given as 0 (Herbicidal ratio of 5% or lower (almost no effect)). The “Herbicidal effect grade, B” value with Scirpus juncoides was 3 (Herbicidal ratio of 40% or higher and lower than 70%). The “K: Lolium multiflorum Lam., herbicidal effect grade” value in the data set with Lolium multiflorum Lam. is 4 (Herbicidal ratio of 70% or higher and lower than 90%). Besides, in [5], the “H: Echinochloa crus-galli var. crus-galli, herbicidal effect grade” value is given as 5 (Herbicidal ratio of 90% or more (almost completely withered)). Further, the “M: Abutilon theophrasti” value in the data set on Abutilon theophrasti is 0 (Herbicidal ratio of 5% or lower (almost no effect)). Besides, the “I: Avena fatua, herbicidal effect grade” value in the data set on Avena fatua is 4 (Herbicidal ratio of 70% or higher and lower than 90%). Besides, the “g: rapeseed, effect on crop grade” value with rapeseed is 0 (Herbicidal ratio of 5% or lower (almost no effect)). Also, the “Herbicidal effect grade, A: Echinochloa oryzacola Vasing.” value in [7] was 4 (Herbicidal ratio of 70% or higher and lower than 90%). Also, the “O: Chenopodium album” value in the data set on Chenopodium album was 0 (Herbicidal ratio of 5% or lower (almost no effect)).
Take `Cc1cc(C)c(C2=C(O)CC(CC(=O)Cc3ccccc3)C2=O)c(C)c1` (stereo not drawn) [2-015]: the “N: Amaranthus retroflexus” value in the data set with Amaranthus retroflexus [1] and with Amaranthus retroflexus [3] was 0 (Herbicidal ratio of 5% or lower (almost no effect)) in each case. In addition, the “F: Digitaria ciliaris” value was 5 (Herbicidal ratio of 90% or more (almost completely withered)) in the data set on Digitaria ciliaris [2]; 3 (Herbicidal ratio of 40% or higher and lower than 70%) with Digitaria ciliaris [6]. The “e: wheat, effect on crop grade” value in the data set with wheat is 0 (Herbicidal ratio of 5% or lower (almost no effect)). Besides, the “f: beet, effect on crop grade” value in the data set with beet is reported as 0 (Herbicidal ratio of 5% or lower (almost no effect)). Besides, the “b: directly sowed rice plant” value with rice plant is given as 5 (Herbicidal ratio of 90% or more (almost completely withered)). For the same compound, the “L: Apera spica-venti” value with Apera spica-venti is 3 (Herbicidal ratio of 40% or higher and lower than 70%). In addition, the “R: Veronica persica” value with Veronica persica is given as 0 (Herbicidal ratio of 5% or lower (almost no effect)). Besides, the “herbicidal effect on D” value with Leptochloa chinensis is 0 (Herbicidal ratio of 5% or lower (almost no effect)). In data set [4], the “herbicidal effect on H” value was 1 (Herbicidal ratio of 5% or higher and lower than 20%). In addition, the “P: Stellaria media” value with Stellaria media was 0 (Herbicidal ratio of 5% or lower (almost no effect)). Moreover, the “Herbicidal effect grade, B” value in the data set with Scirpus juncoides is listed as 0 (Herbicidal ratio of 5% or lower (almost no effect)). Also, the “K: Lolium multiflorum Lam., herbicidal effect grade” value in the data set with Lolium multiflorum Lam. is reported as 5 (Herbicidal ratio of 90% or more (almost completely withered)). For the same compound, in [5], the “H: Echinochloa crus-galli var. crus-galli, herbicidal effect grade” value is 1 (Herbicidal ratio of 5% or higher and lower than 20%). For the same compound, the “M: Abutilon theophrasti” value in the data set on Abutilon theophrasti is 0 (Herbicidal ratio of 5% or lower (almost no effect)). Besides, the “I: Avena fatua, herbicidal effect grade” value in the data set on Avena fatua is 4 (Herbicidal ratio of 70% or higher and lower than 90%). In the data set with rapeseed, the “g: rapeseed, effect on crop grade” value was 0 (Herbicidal ratio of 5% or lower (almost no effect)). Moreover, the “Herbicidal effect grade, A: Echinochloa oryzacola Vasing.” value in data set [7] is 0 (Herbicidal ratio of 5% or lower (almost no effect)). Moreover, the “O: Chenopodium album” value in the data set with Chenopodium album is 0 (Herbicidal ratio of 5% or lower (almost no effect)).
